Values quoted from earlier work, collected in patent publication US7618976B2, “Methods for the production of sildenafil base and citrate salt” (Teva Pharmaceutical Industries Ltd, priority 2004, dated 2009).

System: isolated human corpus cavernosum

CCCc1nn(C)c2c(=O)[nH]c(-c3cc(S(=O)(=O)N4CCN(C)CC4)ccc3OCC)nc12 [Sildenafil]
direct relaxant effect on isolated human corpus cavernosum: no direct relaxant effect
